Data taken from PubChem BioAssay (NCI).
“And” between values parts separate entries of the source, which are not always exact repeats. Equal values may be shown once.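 Results reflect a 48-hour exposure of cells in 96-well plates to compound at five concentrations. GI50 = concentration required for 50% inhibition of growth. The concentration for full growth arrest is given as TGI.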

system: CAKI-1 renal; assay: growth of human tumour cells (NCI), 48 h

Compound	TGI [µM]	GI50 [µM]
CCOC(=O)C(=O)Nc1cc(Cl)ccc1Cl	> 100	
N#Cc1ccc(N=Cc2c([O-])ccc3ccccc23)cc1.[C-]#[O+].[C-]#[O+].[Ir]	6.26	2.92
[N-]=[N+]=C1C(=O)C2CC3CC(C2)CC1C3	> 100	
Cc1ccc(S(=O)OC2C3CC4CC(C3)CC2C4)cc1 (configuration not stated)	> 100	
CN(C)c1ccc(/C=C2\C=Cc3ccccc32)cc1	> 100	
C/C=C(\C)c1cc(O)c(C)c2c1Oc1cc(O)c(Cl)c(C)c1C(=O)O2	> 100	
COC(=O)C(C)(C)N=CN(C)C	> 100	
CCOC1=C2N=C(Cc3ccccc3F)N=C2C(=O)c2ccccc21	> 100	
C=C1CCC2[C@@H](CCC3[C@]2(C)CCC[C@]3(C)C(=O)OC)[C@@H]1CC=O (some centres not stated)	> 100	35.8
CN1COc2c(n(C)c(=O)[nH]c2=O)C1	> 68.3	
CCCCCCN(N)C(=O)CC#N	> 100	
O=C(O)/C(Cl)=C(\Cl)C(=O)Nc1ccc(Cl)c(Cl)c1Cl	32	

system: OVCAR-5 ovarian; assay: growth of human tumour cells (NCI), 48 h

Compound	GI50 [µM]	TGI
C/C1=C\[C@@H](O)C(=O)/C=C/C=C\c2csc(n2)[C@@H](C)NC(=O)C[C@@]2(CC1)S(=O)SC(=O)[C@]2(C)O (some centres not stated)	0.0169	0.699 µM and 0.145 µM
CCOC(=O)C(=O)Nc1cc(Cl)ccc1Cl		> 100 µM
N#Cc1ccc(N=Cc2c([O-])ccc3ccccc23)cc1.[C-]#[O+].[C-]#[O+].[Ir]	21.7	36.5 µM
[N-]=[N+]=C1C(=O)C2CC3CC(C2)CC1C3		> 100 µM
CN(C)CCC(/C=C/c1ccccc1)=N\Nc1ccc(Cl)cc1Cl		28.8 µM
Cc1ccc(S(=O)OC2C3CC4CC(C3)CC2C4)cc1 (configuration not stated)		> 100 µM
CN(C)c1ccc(/C=C2\C=Cc3ccccc32)cc1		> 100 µM
C/C=C(\C)c1cc(O)c(C)c2c1Oc1cc(O)c(Cl)c(C)c1C(=O)O2		30.2 µM
COC(=O)C(C)(C)N=CN(C)C		> 100 µM
C=C1CCC2[C@@H](CCC3[C@]2(C)CCC[C@]3(C)C(=O)OC)[C@@H]1CC=O (some centres not stated)	50.8	> 100 µM
CN1COc2c(n(C)c(=O)[nH]c2=O)C1		> 100 µM
CCCCCCN(N)C(=O)CC#N		> 100 µM
O=C(O)/C(Cl)=C(\Cl)C(=O)Nc1ccc(Cl)c(Cl)c1Cl		32.1 µM
CC1(C)C2CCC13CS(=O)(=O)N1O[C@]13C(=O)O2 (some centres not stated)		> 100 µM

system: SR leukemia; assay: growth of human tumour cells (NCI), 48 h

Compound	GI50 [µM]	TGI [µM]
C/C1=C\[C@@H](O)C(=O)/C=C/C=C\c2csc(n2)[C@@H](C)NC(=O)C[C@@]2(CC1)S(=O)SC(=O)[C@]2(C)O (some centres not stated)	> 100	
CCOC(=O)C(=O)Nc1cc(Cl)ccc1Cl		> 100
N#Cc1ccc(N=Cc2c([O-])ccc3ccccc23)cc1.[C-]#[O+].[C-]#[O+].[Ir]	4.17	20.6
[N-]=[N+]=C1C(=O)C2CC3CC(C2)CC1C3		> 100
COC(=O)CC1NC(=O)C1C1(C)OCCO1 (configuration not stated)		> 100
CN(C)CCC(/C=C/c1ccccc1)=N\Nc1ccc(Cl)cc1Cl		23.9
Cc1ccc(S(=O)OC2C3CC4CC(C3)CC2C4)cc1 (configuration not stated)		> 100
CN(C)c1ccc(/C=C2\C=Cc3ccccc32)cc1		> 100
C/C=C(\C)c1cc(O)c(C)c2c1Oc1cc(O)c(Cl)c(C)c1C(=O)O2		49.5
COC(=O)C(C)(C)N=CN(C)C		> 100
CCOC1=C2N=C(Cc3ccccc3F)N=C2C(=O)c2ccccc21		> 100
CN1COc2c(n(C)c(=O)[nH]c2=O)C1		> 80.6
O=C(O)/C(Cl)=C(\Cl)C(=O)Nc1ccc(Cl)c(Cl)c1Cl		70.1
CC1(C)C2CCC13CS(=O)(=O)N1O[C@]13C(=O)O2 (some centres not stated)		> 100

system: LXFL 529 NSCLC; assay: growth of human tumour cells (NCI), 48 h

Compound	TGI	GI50 [µM]
C/C1=C\[C@@H](O)C(=O)/C=C/C=C\c2csc(n2)[C@@H](C)NC(=O)C[C@@]2(CC1)S(=O)SC(=O)[C@]2(C)O (some centres not stated)	0.0333 µM and 0.0187 µM	
CCOC(=O)C(=O)Nc1cc(Cl)ccc1Cl	> 100 µM	
N#Cc1ccc(N=Cc2c([O-])ccc3ccccc23)cc1.[C-]#[O+].[C-]#[O+].[Ir]	4.32 µM	1.84
[N-]=[N+]=C1C(=O)C2CC3CC(C2)CC1C3	> 100 µM	
COC(=O)CC1NC(=O)C1C1(C)OCCO1 (configuration not stated)	> 100 µM	
CN(C)CCC(/C=C/c1ccccc1)=N\Nc1ccc(Cl)cc1Cl	22.8 µM	
Cc1ccc(S(=O)OC2C3CC4CC(C3)CC2C4)cc1 (configuration not stated)	> 100 µM	
CN(C)c1ccc(/C=C2\C=Cc3ccccc32)cc1	> 100 µM	
C/C=C(\C)c1cc(O)c(C)c2c1Oc1cc(O)c(Cl)c(C)c1C(=O)O2	60 µM	
COC(=O)C(C)(C)N=CN(C)C	> 100 µM	
CCOC1=C2N=C(Cc3ccccc3F)N=C2C(=O)c2ccccc21	> 100 µM	
C=C1CCC2[C@@H](CCC3[C@]2(C)CCC[C@]3(C)C(=O)OC)[C@@H]1CC=O (some centres not stated)	> 100 µM	
CN1COc2c(n(C)c(=O)[nH]c2=O)C1	> 100 µM	
CCCCCCN(N)C(=O)CC#N	> 100 µM	
O=C(O)/C(Cl)=C(\Cl)C(=O)Nc1ccc(Cl)c(Cl)c1Cl	37.9 µM	
CC1(C)C2CCC13CS(=O)(=O)N1O[C@]13C(=O)O2 (some centres not stated)	> 100 µM	

system: HOP-62 NSCLC; assay: growth of human tumour cells (NCI), 48 h

Compound	GI50 [µM]	TGI
C/C1=C\[C@@H](O)C(=O)/C=C/C=C\c2csc(n2)[C@@H](C)NC(=O)C[C@@]2(CC1)S(=O)SC(=O)[C@]2(C)O (some centres not stated)	0.28	0.374 µM and 1.83 µM
CCOC(=O)C(=O)Nc1cc(Cl)ccc1Cl		> 100 µM
N#Cc1ccc(N=Cc2c([O-])ccc3ccccc23)cc1.[C-]#[O+].[C-]#[O+].[Ir]	20.6	42 µM
[N-]=[N+]=C1C(=O)C2CC3CC(C2)CC1C3		> 100 µM
COC(=O)CC1NC(=O)C1C1(C)OCCO1 (configuration not stated)		> 100 µM
CN(C)CCC(/C=C/c1ccccc1)=N\Nc1ccc(Cl)cc1Cl		27.9 µM
Cc1ccc(S(=O)OC2C3CC4CC(C3)CC2C4)cc1 (configuration not stated)		> 100 µM
CN(C)c1ccc(/C=C2\C=Cc3ccccc32)cc1		> 100 µM
C/C=C(\C)c1cc(O)c(C)c2c1Oc1cc(O)c(Cl)c(C)c1C(=O)O2		51.1 µM
COC(=O)C(C)(C)N=CN(C)C		> 100 µM
CCOC1=C2N=C(Cc3ccccc3F)N=C2C(=O)c2ccccc21		> 100 µM
C=C1CCC2[C@@H](CCC3[C@]2(C)CCC[C@]3(C)C(=O)OC)[C@@H]1CC=O (some centres not stated)	> 100	> 100 µM
CN1COc2c(n(C)c(=O)[nH]c2=O)C1		> 100 µM
CCCCCCN(N)C(=O)CC#N		> 100 µM
O=C(O)/C(Cl)=C(\Cl)C(=O)Nc1ccc(Cl)c(Cl)c1Cl		62.3 µM
CC1(C)C2CCC13CS(=O)(=O)N1O[C@]13C(=O)O2 (some centres not stated)		> 100 µM
